{"source": "patent US20250195523A1", "about": "“ORGANIC MOLECULES FOR TREATING MYELIN PATHOLOGIES” (ICM (INSTITUT DU CERVEAU ET DE LA MOELLE ÉPINIÈRE), priority 2022, published 2025)", "key": {"[1]": {"system": "neural progenitor cells (NPCs) obtained from the neonatal SVZ", "test": "Neonatal neural progenitor cell (neurosphere-derived) differentiation cultures, immunodetection of neural lineages", "type": "cell-based, mice", "conditions": "for neurogenesis (neuronal β-III-tubulin+ cells): 750 nM, compared to vehicle, FIG. 1D; for increase in iOLs (Sox10high cells): fold-change between drug treatment and vehicle, FIG. 1G", "experimental": "NSC medium was prepared using up to 50 ml DMEM/F12 (Gibco), containing 666 μl glucose at 45% (Sigma), 0.5 ml penicillin/streptomycin (Sigma), 250 μl HEPES buffer at 1M (Gibco), 500 μl mL N2 supplement (Gibco), 1 mL B27 supplement (Gibco) and with growth factors Insulin 20 μg/ml (Sigma), EGF at 20 ng/ml (Peprotech), FGF 10 ng/ml (Peprotech). Brains were collected from Swiss mice at P0 and washed 3 times in PBS 1× (Invitrogen) with 1% of penicillin/streptomycin (Sigma). SVZ was dissected, transferred in fresh NSC medium and dissociated with pipette. Cells were amplified in a 25 ml flask (1 million of cells for 5 mL of medium), and maintained in a humidified atmosphere at 37° C. and 5% of CO2. Two-three days after, cells have grown as floating neurospheres and were collected by centrifugation at 500 g for 5 mn, dissociated before adding proliferating NSC medium. After 2 passages, 30.000 cells were plated in 24 well plates adherent on coverslips, beforehand coated with poly-ornithine (Merck) diluted in 4 volumes of H2O and washed 3 times. Drugs were added at different ranges of concentration (250 nM, 500 nM and 750 nM) and their respective vehicles (DMSO, or PBS). Medium (including drugs or vehicle) was changed each 2 days. After 4 days with proliferation factors, a differentiation medium without growth factors was added (with drugs or vehicle) for two days. Cells were washed once in PBS, fixed in 4% PBS-paraformaldehyde (thermofischer) for 10 minutes, and washed 3 times in PBS-1×.\nTo do so, we first used a culture of mix neural progenitor cells (NPCs) obtained from the neonatal SVZ (postnatal day 1, P1). […] We supplemented the drugs in both the proliferation and differentiation medium to analyze both their effect in neural cell type specification into the different neural lineages, and assess their ability to foster OPC differentiation. […]"}, "[2]": {"system": "primary OPCs purified by magnetic cell sorting (MACS) from neonatal cortices", "test": "Primary OPC cultures purified by MACS, morphological complexity of OLs", "type": "cell-based, mice", "conditions": "OPCs treated for two days; compared to vehicle; FIG. 2B", "description": "Brains were collected from PLPGFP and P4 Swiss mice […] and washed 3 times in PBS 1× (Invitrogen) with 1% of penicillin/streptomycin (Sigma). Cortex and corpus callosum were dissected and dissociated using neural tissue dissociation kit (T) (Miltenyi biotec) and with dissociator (gentleMACS Octo Dissociator, Miltenyi Biotec). OPC magnetic cell sorting was performed using anti-PDGFRα-coupled-beads (CD140a-PDGFRα MicroBead Kit, Miltenyi biotec) and MultiMACS Cell24 Separator Plus (Miltenyi biotec). Cells were collected in PBS and amplified for 2 days in a proliferating medium (with growth factors IGF, EGF, FGF, and PDGFα). Then, 40.000 cells were plated in 24 well plates adherent on coverslips, beforehand coated with poly-ornithine (Merck) diluted in 4 volumes of H2O and washed 3 times. Successively, for 2 days of proliferation and differentiation, medium was added with drugs at 250 nM, 500 nM and 750 nM, and their respective vehicles (DMSO, PBS). Cells were fixed in 4% PBS-paraformaldehyde (thermo fisher) for 10 minutes and washed 3 times in PBS-1×.\nFor coated-coverslip, blocking was performed in a moist chamber for 30 mn at room temperature (RT) in the blocking buffer (0.05% Triton X-100/10% normal goat serum/PBS). Then, coverslip were incubated for 30 mn with the following primary antibodies at RT. Rat anti-PDGFRα (1:250, BD Biosciences); Mouse anti-CNPase (mlgG1, 1:250; Millipore); Rabbit anti-Btub (1:1000; BABCO); Chicken anti-GFAP (1:500, Avelabs), Mouse anti-MBP (mlgG1, 1:150; Abcam); Rabbit anti-Sox10 (1:1000; Proteintech). Following 3 washing in 0.05% Triton X-100/PBS, coverslips were incubated 30 min at RT in dark with appropriate secondary antibodies conjugated with Alexa Fluor 488, 594 and 647 (1:1000; Molecular Probes or Thermo Fisher) and Dapi (1:5000 from working solution at 5 mg/ml; Life Technologies; D1306). Coverslips were washed 3 times in 0.05% Triton X-100/PBS and mounted with Fluoromount-G (SouthernBiotech).\nTo evaluate cell specific contribution of the drugs directly in OL differentiation and maturation, we used primary OPCs purified by magnetic cell sorting (MACS) from neonatal cortices (P4)."}, "[3]": {"system": "cerebellar slices explants", "test": "Ex vivo cerebellar organotypic explant culture, differentiation and myelination index", "type": "cell-based, mice", "conditions": "750 nM, three days (7-10 DIV); for differentiation index (CC1+/Sox10+ OLs number): compared to negative controls, FIG. 3B", "description": "We prepared cerebellar organotypic cultures from newborn (P0) mice. Cerebellar parasagittal slices (350 μm thick) were cut on a McIlwain tissue chopper and transferred onto 30 mm diameter Millipore culture inserts with […] (Millicell, Millipore). Slices were maintained in incubators at 37° C., under a humidified atmosphere containing 5% CO2 in six-well-plates containing 1 mL of slice culture media. This medium includes basal medium eagle (Invitrogen), 25% complete HBSS, 27 mM D-glucose, 100 U/mL penicillin/streptomycin, 1 mM glutamine (Sigma) and 5% horse serum (New Zealand origin, heat inactivated; Invitrogen). Medium was renewed every 2 days until 7 DIV, reaching the appropriate culture periods to study OPC differentiation and myelination. […] Slices were collected and fixed for 1 h at RT in PBS-4% paraformaldehyde, washed 3 times in PBS, and incubated 20 min at 4° C. in Clark's solution (95% ethanol/5% acetic acid), then washed 3 times in PBS 1×.\nFor ex-vivo cerebellar slices, slices were incubated 20 min at 4° C. in Clark's solution (95% ethanol/5% acetic acid), then washed 3 times in PBS 1×. Then, sections were incubated for 1 hour in a blocking buffer (0.2% Triton X-100/4% bovine serum albumin/4% donkey serum/PBS). Slices were incubated for 2 hours with the following primary antibodies at RT: Goat anti-Sox10 (1:100, R&D Systems); Rabbit anti-Calbindin (1:1000; Swant); Rat anti-MBP (1:200; Abcam); Mouse anti-CC1 (IgG2b; 1:100, Calbiochem). Then slices were washed 3 times in PBS/0.1% Triton X-100 and incubated in blocking buffer (dark, RT) for 2 hours with appropriate secondary antibodies conjugated with Alexa Fluor 488, 594 and 647 (1:1000; Molecular Probes or Thermo Fisher) and Dapi (1:5000 from working solution at 5 mg/ml; Life Technologies; D1306). Finally, slices were washed 3 times in PBS/0.1% Triton X-100 after incubation and mounted in Fluoromount-G (SouthernBiotech).\nThen, we firstly performed a simpler and faster experimental model using cerebellar slices explants to identify the best drugs having pro-oligodendrogenenic and pro-myelinating activities in this ex vivo model, to be used in the in vivo analyses. Indeed, this model allowed us to better assess later aspects of OL maturation, myelination, and cytotoxicity in a richer cellular system, also containing immune cells (microglia/macrophages) that are known to influence oligodendrogenesis and (re) myelination. In this model, the start of myelination takes place after 7 days in culture (FIG. 3A). […] We then analyzed the effect in terms of OL numbers (CC1+/Sox10+ cells) and myelination (MBP labeling on CaBP+ Purkinje cell axons), by immunodetection of all four markers in the same sections. We calculated the differentiation index as the ratio of Sox10+ cells being CC1+, and the myelination index as the ratio CaBP+ axons being MBP+. […] On the one hand, we used the adult focal de/remyelination induced by intracerebral injection of […] (LPC) mimicking de/remyelination of MS, and on the other hand, the neonatal chronic hypoxia model, mimicking PTB hypomyelination."}, "[4]": {"system": "focal demyelination in the corpus callosum of adult mice", "test": "Lysolecithin (LPC) induced focal de/remyelination model in adult mice, oral administration in drinking water", "type": "in vivo", "conditions": "7 dpl, oral daily", "description": "We weighted and anesthetized 4 months old RjOrl: SWISS mice (Janvier) with isoflurane (induced at 3%, and maintained at 1.2-1.6%). We induced focal demyelinating lesions by injecting 0.5 μl of a solution of 1% lysolecithin (LPC, Sigma in 0.9% NaCl solution) into the corpus callosum. To do so, a glass-capillary connected to a 10 μl Hamilton syringe was fixed and oriented through stereotaxic apparatus (coordinates: 1 mm lateral, 1.3 mm rostral to Bregma, 1.7 mm deep to brain surface). Animals were left to recover for a few hours in a warm chamber. […] Mice was perfused at 2% cold paraformaldehyde (thermos fisher) at 7 DPI.\nFor in-vivo cryosections (14-μm thick) of lesions, immunohistochemistry was performed after 30 mn drying at RT in a moist chamber. For myelin staining, ethanol treatment (100%) was performed for 10 mn at RT. Briefly, sections were permeabilized and blocked in a blocking buffer for 1 h (0.05% Triton X-100/10% normal goat serum/PBS). Then, cryosections were incubated overnight with the following primary antibodies at 4° C.: Mouse anti-APC (CC1 IgG2B; 1:100, calbiochem); Rabbit anti-Olig2 (1:500; Millipore); Mouse anti-Olig1 (IgG1; 1:500; NeuroMab); Rat anti-CD68 (1:500, AbD SEROTEC/BioRad); Rabbit anti-IBA1 (1:500, Wako Fujifilm); Mouse anti-MOOG (mlgG1, 1:20; Hybridoma). Then sections were washed 3 times in 0.05% Triton X-100/PBS and incubated 1 hour at RT with appropriate secondary antibodies conjugated with Alexa Fluor 488, 594 and 647 (1:1000; Molecular Probes or Thermo Fisher) and Dapi (1:5000 from working solution at 5 mg/ml; Life Technologies; D1306). Sections were washed 3 times in 0.05% Triton X-100/PBS and mounted with Fluoromount-G (SouthernBiotech).\nWe analyzed the lesions at 7 days post-lesion (7 dpl), when newly formed OLs have started to remyelinate the lesion in this model. The lesion area was identified by immunodetection of the high cellular density with DAPI staining, reduction of myelin with myelin oligodendrocyte glycoprotein (MOG), and abundance of microglia/macrophages with Iba1 and Cd68. We determined the effect of the drugs to promote oligodendrogenesis at the lesion site by combinatory immunodetection of Olig2, CC1 and Olig1, allowing to distinguish OPCs (Olig2^high/CC1^−/Olig1^nuclear-cyto cells) and three stages in OL differentiation: iOL1 (Olig2^high/CC1^high/Olig1^− cells), iOL2 (Olig2^high/CC1^high/Olig1^high-cyto cells), and mOL (Olig2^low/CC1^low/Olig1^low cells). […] Given the increase in OL differentiation by the drugs administration, without diminishing the pool of OPCs in the lesion area, we assessed for the proliferative status of OPCs, using Mcm2 and Ki67 proliferative markers, finding that both drugs promote a ˜2-fold increase in the density of proliferative OPCs (FIG. 4D) and in the proportion of proliferative OPCs (FIG. 4E).\nTo investigate the possible anti-inflammatory and pro-regenerative activity of these drugs, we performed staining for microglia/macrophages (Iba1+ cells), their active phagocytic status (Cd68+ cells), together with myelin (MOG) and cell density (DAPI) to identify the lesion area."}}, "data": [{"smiles": "S=C(NC1CCCCC1)N1CCC(c2cnc[nH]2)CC1", "note": "[Sm9, Thioperamide]", "values": [{"measurement": "neurogenesis (neuronal β-III-tubulin+ cells)", "setting": "[1]", "value": "positive effect"}]}, {"smiles": "Cc1cc2c(cc1S(N)(=O)=O)S(=O)(=O)CCC2", "note": "[Sm1, Meticrane]", "values": [{"measurement": "morphological complexity of OLs (PLP+ cells)", "setting": "[2]", "value": "strongly increased"}, {"measurement": "differentiation index (CC1+/Sox10+ OLs number)", "setting": "[3]", "value": "increased differentiation index"}]}, {"smiles": "Nc1nc(=O)c2c([nH]1)NCC(CNc1ccc(C(=O)N[C@@H](CCC(=O)O)C(=O)O)cc1)N2C=O.[Ca+2]", "note": "(stereo partly shown) [Sm11, Calcium folinate]", "values": [{"measurement": "morphological complexity of OLs (PLP+ cells)", "setting": "[2]", "value": "strongly increased"}, {"measurement": "neurogenesis (neuronal β-III-tubulin+ cells)", "setting": "[1]", "value": "positive effect"}, {"measurement": "number of oligodendroglial cells in the remyelinating area (Olig2+ cells)", "setting": "[4]; sm5 at 5 μg per g, control 942.5±265.7, FIG. 4B", "value": "1558±331", "unit": "Olig2+ cells per mm^2"}, {"measurement": "density of OPCs (Olig2high/CC1−/Olig1nuclear-cyto cells) in the lesion area", "setting": "[4]; FIG. 4C", "value": "did not change"}, {"measurement": "pro-regenerative microglia (Arg1+ cells)", "setting": "[4]; FIG. 4I", "value": "corresponding increase"}, {"measurement": "actively phagocytic microglia/macrophages (Cd68+ cells)", "setting": "[4]; control 22.45%, FIG. 4H", "value": "12.13%±5.14"}, {"measurement": "surface occupied by Iba1+ microglia/macrophages in the lesion area", "setting": "[4]; control 33.64%, FIG. 4G", "value": "27.28%±4.16"}, {"measurement": "increase of each stage of OL differentiation (iOL1, iOL2 & mOL)", "setting": "[4]; versus control", "value": "~2", "unit": "fold"}, {"measurement": "increase in the density of proliferative OPCs (Mcm2, Ki67 markers)", "setting": "[4]; versus control, FIG. 4D", "value": "~2", "unit": "fold"}, {"measurement": "increase in the proportion of proliferative OPCs", "setting": "[4]; versus control, FIG. 4E", "value": "~2", "unit": "fold"}]}, {"smiles": "C#C[C@]1(O)CC[C@H]2[C@@H]3CCC4=CC(=O)CC[C@@H]4[C@H]3CC[C@@]21CC", "note": "[Sm7, Levonorgestrel]", "values": [{"measurement": "increase in iOLs (Sox10high cells)", "setting": "[1]", "value": "increased tendency not reaching statistical significance"}]}, {"smiles": "C[C@@H]1C(=O)O[C@H]2C[C@@]34[C@H]5C[C@@H](C(C)(C)C)[C@]36[C@@H](OC(=O)[C@@H]6O)O[C@@]4(C(=O)O5)[C@]21O", "note": "[Sm6, Ginkgolide A]", "values": [{"measurement": "morphological complexity of OLs (PLP+ cells)", "setting": "[2]", "value": "strongly increased"}]}, {"smiles": "OC(CCN1CCCCC1)(c1ccccc1)C1CCCCC1", "note": "(stereo not shown) [Sm10, Trihexyphenidyl]", "values": [{"measurement": "increase in iOLs (Sox10high cells)", "setting": "[1]", "value": "increased tendency not reaching statistical significance"}]}, {"smiles": "CC(N)CCCC(C)(C)O", "note": "(stereo not shown) [Sm2, Heptaminol]", "values": [{"measurement": "morphological complexity of OLs (PLP+ cells)", "setting": "[2]", "value": "strongly increased"}, {"measurement": "differentiation index (CC1+/Sox10+ OLs number)", "setting": "[3]", "value": "increased differentiation index"}, {"measurement": "myelination process (MBP+/CaBP+), myelination index", "setting": "[3]; compared to vehicle, FIG. 3C", "value": "robust increase"}]}]}
